One assay has as its target EGFR L858R/T790M (Homo sapiens, UniProt P00533, L858R/T790M). The assay can be described thus: HTRF-based EGFR biochemical assay (L858R/T790M). The conditions noted are these: enzyme 0.02 nM, ATP 100 µM, 30 min preincubation. How it is done:
(§1) EGFR biochemical activity measurements were carried out using the homogeneous time-resolved fluorescence (HTRF) assay (Cisbio). Inhibitors and DMSO normalizations were first dispensed to empty black low-volume 384-well plates (Corning) with D300 digital liquid dispenser (HP). All reactions were carried out at room temperature and solutions were added to plates with a Multidrop Combi Reagent Dispenser (ThermoFisher). The reaction mixture (10 µL final volume) contained 1 µM tyrosine kinase peptide-biotin substrate and mutant EGFR in a reaction buffer (50 mM HEPES pH 7.0, 5 mM MgCl2, 1 mM MnCl2, 0.01% BSA, 2 mM TCEP, 0.1 mM NaVO4). Enzyme concentrations were adjusted to accommodate varying kinase activities (L858R 0.1 nM, L858R/T790M 0.02 nM). Enzyme reaction solution (2× concentrations, 5 µL) was added to 384-well plates containing compounds and incubated for 30 mins. Enzyme reactions were initiated with the addition of 5 µL of ATP to a final concentration of 100 µM and reacted for 20 mins. Reactions were quenched with the addition of 10 µL of phospho-tyrosine antibody-Europium(III) cryptate (1-to-180 volume ratio) and Streptavidin-XL665 (46.7 nM) in EDTA-containing detection buffer, then incubated at room temperature for 1 hour, and read with a PHERAstar plate reader (excitation = 337 nm, emission = 620 nm and 665 nm). IC50 values were determined by inhibition curves (11-point curves from 1.0 µM to 0.130 nM or 23-point curves from 1.0 µM to 0.130 pM) in triplicate with non-linear least squares fit in GraphPad Prism 7.0d.

Another assay addresses EGFR L858R (Homo sapiens, UniProt P00533, L858R). Put plainly: HTRF-based EGFR biochemical assay (L858R). Conditions: enzyme 0.1 nM, ATP 100 µM, 30 min preincubation. The method, then:
as §1

Assay [1] has as its target EGFR mutant L858R/T790M Ba/F3 cells (Homo sapiens, UniProt P00533, T790M/L858R, cells depend on it). Put plainly: Ba/F3 cell proliferation model (Cell Titer Glo), EGFR L858R/T790M. The format is cell-based, murine. Conditions: 72 hours. From the text:
(§2) The EGFR mutant L858R and L858R/T790M Ba/F3 cells have been previously described (Zhou, W., et al. Nature 462, 2009, 1070-1074). All cell lines were maintained in RPMI 1640 (Cellgro; Mediatech Inc., Herndon, CA) supplemented with 10% FBS, 100 units/mL penicillin, 100 units/mL streptomycin. The EGFR I941R mutation was introduced via site directed mutagenesis using the Quick Change Site-Directed Mutagenesis kit (Stratagene; La Jolla, CA) according to the manufacturer’s instructions. All constructs were confirmed by DNA sequencing. The constructs were shuttled into the retroviral vector JP1540 using the Cre-recombination system (Agilent Technologies, Santa Clara, CA). Ba/F3 cells were then infected with retrovirus per standard protocols, as described previously (Zhou, et al, Nature 2009). Stable clones were obtained by selection in puromycin (2 µg/ml).
(§3) Growth and inhibition of growth was assessed by the Cell Titer Glo assay (Promega, Madison, WI) and was performed according to the manufacturer’s instructions. The Cell Titer Glo assay is a luminescence-based method used to determine the number of viable cells based on quantitation of the ATP present, which is directly proportional to the amount of metabolically active cells present. Ba/F3 cells of different EGFR genotypes were exposed to compounds as a single agent or in combination with 1 µg/mL cetuximab for 72 hours and the number of cells used per experiment was determined empirically as has been previously established (Zhou, et al., Nature 2009). All experimental points were set up in triplicates in 384-well plates and all experiments were repeated at least three times. […] The curves were fitted using a non-linear regression model with a sigmoidal dose response.

For assay [2], the target named is EGFR mutant L858R Ba/F3 cells (Homo sapiens, UniProt P00533, L858R, cells depend on it). Put plainly: Ba/F3 cell proliferation model (Cell Titer Glo), EGFR L858R. The assay is classed as cell-based, murine. Conditions: single agent, 72 hours; read-out: Cell ICso BaF3 EGFR L858R.
From the text: as §2, §3

[3] abbreviates: single agent, read-out: Cell IC50 BaF3 EGFR L858R/T790M.

Where a name gives a salt, the structure may show the parent alone. Read-outs that look alike come from different tables or passages of the source.

Chain of EGFR mutant L858R Ba/F3 cells (P00533 whole entry L858R): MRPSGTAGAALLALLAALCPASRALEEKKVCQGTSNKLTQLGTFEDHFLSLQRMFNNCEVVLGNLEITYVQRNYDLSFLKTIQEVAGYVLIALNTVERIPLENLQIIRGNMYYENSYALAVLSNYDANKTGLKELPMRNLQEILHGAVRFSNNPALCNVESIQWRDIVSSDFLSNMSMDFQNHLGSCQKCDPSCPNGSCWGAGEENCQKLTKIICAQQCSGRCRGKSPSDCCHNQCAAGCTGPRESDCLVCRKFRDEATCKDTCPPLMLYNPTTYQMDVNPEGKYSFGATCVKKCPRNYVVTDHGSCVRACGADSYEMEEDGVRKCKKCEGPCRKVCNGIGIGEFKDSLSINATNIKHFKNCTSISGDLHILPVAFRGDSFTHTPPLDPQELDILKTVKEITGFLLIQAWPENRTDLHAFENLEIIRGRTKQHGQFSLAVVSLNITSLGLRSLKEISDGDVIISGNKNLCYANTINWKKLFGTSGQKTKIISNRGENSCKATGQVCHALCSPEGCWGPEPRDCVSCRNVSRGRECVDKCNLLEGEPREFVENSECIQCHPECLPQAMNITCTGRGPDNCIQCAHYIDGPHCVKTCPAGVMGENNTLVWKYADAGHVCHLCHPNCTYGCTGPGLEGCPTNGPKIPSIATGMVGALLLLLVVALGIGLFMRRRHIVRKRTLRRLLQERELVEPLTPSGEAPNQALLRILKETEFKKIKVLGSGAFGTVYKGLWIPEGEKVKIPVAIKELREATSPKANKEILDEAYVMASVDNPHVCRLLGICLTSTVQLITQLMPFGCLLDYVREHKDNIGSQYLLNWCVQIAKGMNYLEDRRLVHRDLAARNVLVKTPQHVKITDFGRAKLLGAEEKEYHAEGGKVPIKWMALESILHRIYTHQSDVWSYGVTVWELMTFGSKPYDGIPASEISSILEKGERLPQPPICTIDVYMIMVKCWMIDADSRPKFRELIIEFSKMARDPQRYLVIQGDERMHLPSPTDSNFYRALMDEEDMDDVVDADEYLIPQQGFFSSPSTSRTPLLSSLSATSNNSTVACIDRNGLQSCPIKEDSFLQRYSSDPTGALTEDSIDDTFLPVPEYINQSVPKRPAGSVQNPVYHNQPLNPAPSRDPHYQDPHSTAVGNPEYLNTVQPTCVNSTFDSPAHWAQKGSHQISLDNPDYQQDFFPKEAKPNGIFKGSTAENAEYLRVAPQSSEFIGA
Chain of EGFR L858R/T790M (P00533 25-1210 T790M/L858R): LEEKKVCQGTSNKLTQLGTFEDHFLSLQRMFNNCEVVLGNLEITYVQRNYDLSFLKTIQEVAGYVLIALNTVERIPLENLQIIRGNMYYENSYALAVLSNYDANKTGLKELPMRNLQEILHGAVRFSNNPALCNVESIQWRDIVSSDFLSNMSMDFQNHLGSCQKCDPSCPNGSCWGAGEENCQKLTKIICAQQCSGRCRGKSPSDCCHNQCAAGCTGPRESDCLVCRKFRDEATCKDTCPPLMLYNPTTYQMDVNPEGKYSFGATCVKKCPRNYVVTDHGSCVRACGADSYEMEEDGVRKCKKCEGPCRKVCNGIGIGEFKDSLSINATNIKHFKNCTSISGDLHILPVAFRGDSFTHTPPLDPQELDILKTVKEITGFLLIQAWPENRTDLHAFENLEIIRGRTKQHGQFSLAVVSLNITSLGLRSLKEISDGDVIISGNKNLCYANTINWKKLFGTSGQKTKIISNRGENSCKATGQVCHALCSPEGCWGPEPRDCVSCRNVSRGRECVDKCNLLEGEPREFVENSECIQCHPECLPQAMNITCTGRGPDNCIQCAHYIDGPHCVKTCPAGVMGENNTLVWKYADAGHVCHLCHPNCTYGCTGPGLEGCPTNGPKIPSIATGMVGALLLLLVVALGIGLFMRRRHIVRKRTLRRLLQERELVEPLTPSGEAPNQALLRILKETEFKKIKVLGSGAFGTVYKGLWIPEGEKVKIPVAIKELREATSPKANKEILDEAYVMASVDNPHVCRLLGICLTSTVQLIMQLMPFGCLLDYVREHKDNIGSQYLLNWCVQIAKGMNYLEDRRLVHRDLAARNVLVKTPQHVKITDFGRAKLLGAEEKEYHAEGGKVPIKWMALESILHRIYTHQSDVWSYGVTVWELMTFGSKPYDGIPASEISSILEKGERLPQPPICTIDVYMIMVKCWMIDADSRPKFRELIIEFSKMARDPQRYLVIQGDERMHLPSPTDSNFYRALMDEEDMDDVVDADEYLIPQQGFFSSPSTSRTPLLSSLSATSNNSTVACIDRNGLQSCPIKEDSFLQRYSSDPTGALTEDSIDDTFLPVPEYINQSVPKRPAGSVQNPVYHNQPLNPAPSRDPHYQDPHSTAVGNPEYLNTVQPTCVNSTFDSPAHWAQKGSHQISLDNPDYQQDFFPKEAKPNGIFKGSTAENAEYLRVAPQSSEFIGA
Chain of EGFR L858R (P00533 25-1210 L858R): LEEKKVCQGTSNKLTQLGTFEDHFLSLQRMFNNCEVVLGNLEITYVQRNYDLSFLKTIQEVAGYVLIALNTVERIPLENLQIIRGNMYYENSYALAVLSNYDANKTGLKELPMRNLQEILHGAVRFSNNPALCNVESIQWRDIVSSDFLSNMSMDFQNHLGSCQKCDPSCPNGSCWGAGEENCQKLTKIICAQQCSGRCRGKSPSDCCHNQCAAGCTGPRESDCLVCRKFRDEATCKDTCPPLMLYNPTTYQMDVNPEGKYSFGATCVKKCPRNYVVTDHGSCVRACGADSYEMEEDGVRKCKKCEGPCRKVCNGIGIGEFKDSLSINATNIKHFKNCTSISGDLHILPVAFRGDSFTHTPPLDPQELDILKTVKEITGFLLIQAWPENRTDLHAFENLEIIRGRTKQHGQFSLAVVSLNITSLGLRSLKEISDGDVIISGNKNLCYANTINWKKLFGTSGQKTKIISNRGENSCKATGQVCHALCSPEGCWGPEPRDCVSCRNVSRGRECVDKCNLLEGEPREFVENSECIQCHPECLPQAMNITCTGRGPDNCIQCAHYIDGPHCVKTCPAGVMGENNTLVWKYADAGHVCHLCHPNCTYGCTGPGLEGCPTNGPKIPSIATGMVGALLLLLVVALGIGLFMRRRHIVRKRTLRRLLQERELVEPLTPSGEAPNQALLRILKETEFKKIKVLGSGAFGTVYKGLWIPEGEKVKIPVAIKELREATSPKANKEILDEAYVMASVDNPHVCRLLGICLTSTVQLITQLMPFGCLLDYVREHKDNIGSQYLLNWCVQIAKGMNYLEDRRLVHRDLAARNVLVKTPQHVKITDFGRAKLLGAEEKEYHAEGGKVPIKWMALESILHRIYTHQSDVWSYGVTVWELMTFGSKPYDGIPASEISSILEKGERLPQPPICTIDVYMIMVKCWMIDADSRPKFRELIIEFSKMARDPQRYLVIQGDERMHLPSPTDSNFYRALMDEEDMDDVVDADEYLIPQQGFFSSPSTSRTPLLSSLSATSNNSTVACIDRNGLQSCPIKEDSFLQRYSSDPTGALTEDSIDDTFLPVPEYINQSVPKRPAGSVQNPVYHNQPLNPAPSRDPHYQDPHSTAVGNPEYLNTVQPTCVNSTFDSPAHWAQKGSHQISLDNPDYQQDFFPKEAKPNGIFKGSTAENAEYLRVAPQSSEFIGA
Chain of EGFR mutant L858R/T790M Ba/F3 cells (P00533 whole entry T790M/L858R): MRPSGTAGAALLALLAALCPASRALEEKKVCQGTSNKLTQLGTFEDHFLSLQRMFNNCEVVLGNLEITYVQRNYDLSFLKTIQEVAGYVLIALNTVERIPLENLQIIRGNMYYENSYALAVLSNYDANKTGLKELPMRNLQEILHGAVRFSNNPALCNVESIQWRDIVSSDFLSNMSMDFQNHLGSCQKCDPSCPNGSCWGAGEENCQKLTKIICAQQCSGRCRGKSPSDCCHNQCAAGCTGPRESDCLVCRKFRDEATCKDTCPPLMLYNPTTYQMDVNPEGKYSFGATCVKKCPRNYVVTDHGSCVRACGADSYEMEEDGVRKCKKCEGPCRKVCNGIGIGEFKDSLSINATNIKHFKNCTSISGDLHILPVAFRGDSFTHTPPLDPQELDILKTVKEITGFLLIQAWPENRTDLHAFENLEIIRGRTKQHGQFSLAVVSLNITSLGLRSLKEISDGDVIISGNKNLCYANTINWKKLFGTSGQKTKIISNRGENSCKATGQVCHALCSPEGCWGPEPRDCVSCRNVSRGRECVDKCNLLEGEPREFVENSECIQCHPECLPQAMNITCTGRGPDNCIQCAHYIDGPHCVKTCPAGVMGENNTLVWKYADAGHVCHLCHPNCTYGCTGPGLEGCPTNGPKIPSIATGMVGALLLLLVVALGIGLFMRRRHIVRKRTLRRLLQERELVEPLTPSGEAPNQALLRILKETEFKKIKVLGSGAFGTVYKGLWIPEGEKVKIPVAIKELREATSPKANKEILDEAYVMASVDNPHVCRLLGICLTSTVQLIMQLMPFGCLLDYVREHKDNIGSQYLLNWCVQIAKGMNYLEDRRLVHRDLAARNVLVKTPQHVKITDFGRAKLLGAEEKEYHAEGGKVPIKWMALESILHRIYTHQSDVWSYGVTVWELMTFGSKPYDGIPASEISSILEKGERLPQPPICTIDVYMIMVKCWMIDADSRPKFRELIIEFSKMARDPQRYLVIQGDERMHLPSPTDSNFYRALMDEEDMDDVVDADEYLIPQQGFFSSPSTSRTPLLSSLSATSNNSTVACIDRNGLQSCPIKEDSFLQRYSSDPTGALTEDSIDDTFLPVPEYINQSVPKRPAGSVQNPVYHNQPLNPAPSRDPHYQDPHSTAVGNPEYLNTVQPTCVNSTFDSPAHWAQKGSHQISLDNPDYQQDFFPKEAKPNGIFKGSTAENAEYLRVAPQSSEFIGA

In the case of `CN1CCC(c2ccc(-c3cc4ccn([C@@H](c5nc6ccccc6[nH]5)c5cc(F)ccc5O)c(=O)c4s3)cc2)CC1` (single isomer, unassigned) [Compound 015], the IC50 against EGFR L858R/T790M came out at 0.2 nM; at EGFR L858R, 0.9 nM. Besides, the GI50 in assay [1] (setting [3]) is 10 nM; in assay [2], 40 nM.

On to `CN1CCC(c2ccc(-c3cc4c(=O)n(C(C(=O)Nc5nccs5)c5ccccc5)cnn4c3)cc2)CC1` (stereo not shown) [Compound 001, 2-(6-(4-(1-Methylpiperidin-4-Yl)Phenyl)-4-Oxopyrrolo[2,1-f][1,2,4]-Triazin-3(4H)-Yl)-2-Phenyl-N-(Thiazol-2-yl)Acetamide;Hydrochloride], for which the figures for the IC50 on EGFR L858R/T790M and at EGFR L858R were 1 nM and 5 nM, respectively. The GI50 in assay [1] (in combination with 1 µg/mL cetuximab, read-out: Cell IC50 BaF3 EGFR L858R/T790M (+ cetux.)) was 90 nM; in assay [1] (setting [3]), 2300 nM.

For the compound `CN1CCC(c2ccc(-c3cc4c(=O)n(C(c5ccccc5)c5nc6ccccc6[nH]5)cnn4c3)cc2)CC1` (stereo not shown) [Compound 002, 3-((1H-Benzo[d]Imidazol-2-Yl)(Phenyl)Methyl)-6-(4-(1-Methylpiperidin-4-Yl)Phenyl)Pyrrolo [2,1-f][1,2,4]Triazin-4(3H)-One;Hydrochloride], the half-maximal inhibitory concentration (IC50) on EGFR L858R/T790M and at EGFR L858R was over 100 nM each time. Besides, the GI50 is 2630 nM in assay [1] (setting [3]) and 2240 nM in assay [2].

With `CN1CCC(c2ccc(-c3cc4ncn(C(C(=O)Nc5nccs5)c5ccccc5)c(=O)c4s3)cc2)CC1` (stereo not shown) [Compound 003, 2-(6-(4-(1-Methylpiperidin-4-Yl)Phenyl)-4-Oxothieno[3,2-d)Pyrimidin-3(4H)-Yl)-2-Phenyl-N-(Thiazol-2-Yl)Acetamide], the figures for the 50% inhibitory concentration (IC50) at EGFR L858R/T790M and against EGFR L858R were 29 nM and 31 nM, respectively. The GI50 stood at 890 nM in assay [1] (setting [3]) and 850 nM in assay [2].

In the case of `CN1CCC(c2ccc(-c3cc4ncn(C(c5ccccc5)c5nc6ccccc6[nH]5)c(=O)c4s3)cc2)CC1` (stereo not shown) [Compound 004, 3-((1H-benzo[d]imidazol-2-yl)(phenyl)methyl)-6-(4-(1-methylpiperidin-4-yl)phenyl)thieno[3,2-d]pyrimidin-4(3H)-one], the IC50 on EGFR L858R/T790M and against EGFR L858R was over 100 nM in each case. Moreover, the GI50 came to 3680 nM in assay [1] (setting [3]) and 4570 nM in assay [2].

In the case of `CN1CCC(c2ccc(-c3cc4c(=O)n(C(C(=O)Nc5nccs5)c5ccccc5)ccc4s3)cc2)CC1` (stereo not shown) [Compound 005, 2-[2-[4-(1-methyl-4-piperidyl)phenyl]-4-oxo-thieno[3,2-c]pyridin-5-yl]-2-phenyl-N-thiazol-2-yi-acetamide], the IC50 on EGFR L858R/T790M amounted to 0.8 nM; against EGFR L858R, 3 nM. Also, the GI50 in assay [1] (setting [3]) was 2040 nM; in assay [2], 1550 nM.

With `CN1CCC(c2ccc(-c3cc4c(=O)n(C(c5ccccc5)c5nc6ccccc6[nH]5)ccc4s3)cc2)CC1` (stereo not shown) [Compound 006], the results for the IC50 on EGFR L858R/T790M and at EGFR L858R were 19 nM and 21 nM, respectively. In addition, the GI50 in assay [1] (setting [3]) was found to be 3550 nM; in assay [2], 3130 nM.

Take `CN1CCC(c2ccc(-c3cc4ccn(C(C(=O)Nc5nccs5)c5ccccc5)c(=O)c4s3)cc2)CC1` (stereo not shown) [Compound 007, 2-[2-[4-(1-methyl-4-piperidyl)phenyl]-7-oxo-thieno[2,3-c]pyridin-6-yl]-2-phenyl-N-thiazol-2-yl-acetamide;hydrochloride]: the half-inhibitory concentration (IC50) against EGFR L858R/T790M came out at 0.6 nM; against EGFR L858R, 3 nM. For the same compound, the GI50 in assay [1] (setting [3]) came out at 570 nM; in assay [2] it was 360 nM.

For `CN1CCC(c2ccc(-c3cc4ccn(C(c5ccccc5)c5nc6ccccc6[nH]5)c(=O)c4s3)cc2)CC1` (stereo not shown) [Compound 008, 6-[1H-benzimidazol-2-yl(phenyl)methyl]-2-[4-(1-methyl-4-piperidyl)phenyl]thieno[2,3-c]pyridin-7-one;hydrochloride], the IC50 turned out to be 29 nM against EGFR L858R/T790M and 27 nM against EGFR L858R. Also, the values for the GI50 in assay [1] (setting [3]) and in assay [2] were 1670 nM and 1870 nM, respectively.

Take `CN1CCC(c2ccc(-c3cc4ccn(C(c5nc6ccccc6[nH]5)c5cc(F)ccc5O)c(=O)c4s3)cc2)CC1` (stereo not shown) [Compound 009, 6-[1H-benzimidazol-2-yl-(5-fluoro-2-hydroxy-phenyl)methyl]-2-[4-(1-methyl-4-piperidyl)phenyl]thieno[2,3-c]pyridin-7-one;dihydrochloride]: the IC50 against EGFR L858R/T790M was found to be 0.6 nM; against EGFR L858R, 2 nM. The GI50 in assay [1] (setting [3]) amounted to 20 nM; in assay [2], 70 nM.

On to `CN1CCC(c2ccc(-c3cc4c(=O)n(C(c5nc6ccccc6[nH]5)c5cc(F)ccc5O)ccc4s3)cc2)CC1` (stereo not shown) [Compound 010, 5-[1H-benzimidazol-2-yl-(5-fluoro-2-hydroxy-phenyl)methyl]-2-[4-(1-methyl-4-piperidyl)phenyl]thieno[3,2-c]pyridin-4-one;dihydrochloride], for which the IC50 turned out to be 0.8 nM at EGFR L858R/T790M and 2 nM at EGFR L858R. The GI50 turned out to be 240 nM in assay [1] (setting [3]) and 1080 nM in assay [2].

For `CN1CCC(c2ccc(-c3cc4c(s3)C(=O)N(C(c3nc5ccccc5[nH]3)c3cc(F)ccc3O)CC4)cc2)CC1` (stereo not shown) [Compound 011, 6-[1H-benzimidazol-2-yl-(5-fluoro-2-hydroxy-phenyl)methyl]-2-[4-(1-methyl-4-piperidyl)phenyl]-4,5-dihydrothieno[2,3-c]pyridin-7-one;dihydrochloride], the half-maximal inhibitory concentration (IC50) against EGFR L858R/T790M came to 2 nM; on EGFR L858R, 6 nM. Further, the GI50 was 280 nM in assay [1] (setting [3]) and 490 nM in assay [2].

As to `CN1CCC(c2ccc(-c3cc4c(s3)CCN(C(c3nc5ccccc5[nH]3)c3cc(F)ccc3O)C4=O)cc2)CC1` (stereo not shown) [Compound 012, 5-[1H-Benzimidazol-2-Yl-(5-Fluoro-2-Hydroxy-Phenyl)Methyl]-2-[4-(1-Methyl-4-Piperidyl)Phenyl]-6,7-Dihydrothieno[3,2-c]Pyridin-4-One;Dihydrochloride], the 50% inhibitory concentration (IC50) against EGFR L858R/T790M was determined as 5 nM; against EGFR L858R it was 10 nM. Also, the GI50 in assay [1] (setting [3]) worked out at 840 nM; in assay [2], 1700 nM.

Take `CN1CCC(c2ccc(-c3cc4c(s3)CN(C(c3nc5ccccc5[nH]3)c3cc(F)ccc3O)C4=O)cc2)CC1` (stereo not shown) [Compound 013, 5-[1H-Benzimidazol-2-Yl-(5-Fluoro-2-Hydroxy-Phenyl)Methyl]-2-[4-(1-Methyl-4-Piperidyl)Phenyl]-6H-Thieno[2,3-c]Pyrrol-4-One;Dihydrochloride]: the concentration for half-maximal inhibition (IC50) worked out at 14 nM on EGFR L858R/T790M and 9 nM against EGFR L858R. In addition, the GI50 was determined as 750 nM in assay [1] (setting [3]) and 1010 nM in assay [2].

Take `CN1CCC(c2ccc(-c3cc4c(s3)C(=O)N(C(c3nc5ccccc5[nH]3)c3cc(F)ccc3O)C4)cc2)CC1` (stereo not shown) [Compound 014, 5-[1H-benzimidazol-2-yl-(5-fluoro-2-hydroxy-phenyl)methyl]-2-[4-(1-methyl-4-piperidyl)phenyl]-4H-thieno[2,3-c]pyrrol-6-one;dihydrochloride]: the IC50 against EGFR L858R/T790M and at EGFR L858R was 21 nM each time. The GI50 in assay [1] (setting [3]) came to 1180 nM; in assay [2], 1330 nM.

As to `CN1CCC(c2ccc(-c3ccc4c(c3)N(C)C(=O)N(C(c3nc5ccccc5[nH]3)c3cc(F)ccc3O)C4)cc2)CC1` (stereo not shown) [Compound 017, 3-[1H-benzimidazol-2-yl-(5-fluoro-2-hydroxy-phenyl)methyl]-1-methyl-7-[4-(1-methyl-4-piperidyl)phenyl]-4H-quinazolin-2-one;dihydrochloride], the GI50 in assay [1] (setting [3]) was 1090 nM.

The record behind these values is patent US20230212171A1, “ALLOSTERIC EGFR INHIBITORS AND METHODS OF USE THEREOF” (Dana-Farber Cancer Institute, Inc., priority 2020, published 2023).
